Results from article PMC11357256, “Selectivity Screening and Structure–Cytotoxic Activity Observations of Selected Oleanolic Acid (OA)-Type Saponins from the Amaranthaceae Family on a Wiade Panel of Human Cancer Cell Lines” (Molecules, 2024).

How the values were obtained:
A375 = assay: MTT cell viability assay, A375 malignant melanoma cells; assay type: cell-based, human; conditions: for IC50: Homo sapiens, A-375; for Selectivity Index (SI): IC50 HaCaT / IC50 A375, 24 h
Description: (§1) Cell lines used in the study were grouped as follows: skin panel (melanomas: HTB140, derived from metastatic site: lymph node, ATCC Hs 294 T; malignant A375, ATCC CRL-1619; stage I primary WM793, RRID:CVCL 8787; skin keratinocytes HaCaT); prostate panel (prostate carcinomas: Du145, derived from metastatic site: brain, ATCC HTB-81; grade IV PC3, derived from metastatic site: bone, ATCC CRL-1435, LNCaP, derived from the metastatic site: lymph node, ATCC CRL-1740; prostate epithelial, PNT2, ECACC 95012613); gastrointestinal panel (colorectal adenocarcinomas: Caco2, ATCC HTB-37, HT29, ATCC HTB-38, DLD-1, ATCC CCL-221, HCT116, ATCC CCL-247, and colon epithelial cells CCD 841 CoN, ATCC CRL-1790; hepatocellular carcinoma HepG2, ATCC HB-8065); thyroid panel (follicular thyroid carcinoma FTC133, ECACC 9406090, undifferentiated thyroid carcinoma 8505C, ECACC 94090184, papillary thyroid carcinoma TPC-1, SCC147, normal thyroid follicular epithelial Nthy-ori 3–1, ECACC 90011609); and breast panel (ER-positive breast adenocarcinoma MCF7, ATCC HTB-22; ER-negative breast adenocarcinoma MDA-MB-231, ATCC HTB-26; breast epithelial MCF10A, ATCC CRL-10317). Cells were grown under standard conditions (37 °C, 5% CO2, relative humidity), and culture media (DMEM/F12 for PNT2, WM 793, HT29, PC3, FTC133, 8505 C, MDA-MB-231, TPC-1; DMEM Low Glucose for DU145; DMEM High Glucose for HTB140, A375, HaCaT; MEM with NEAA for Caco2 and MCF7; RPMI1640 with sodium pyruvate for LNCaP; DMEM/F12 with 20 ng/mL epidermal growth factor (EGF), 10 μg/mL insulin, 0.5 μg/mL hydrocortisone, 100 ng/mL cholera toxin) for MCF10A) supplemented with 10% fetal bovine serum (FBS) or 5% donor horse serum for MCF10A, and 1% antibiotics solution (10,000 U penicillin and 10 mg streptomycin/mL) […], as previously described. All cell lines, culture media, and supplements were from Sigma-Aldrich (Germany).
(§2) The cells were seeded in 96-well plates (1.5 × 10^4 cells/well). After 24 h, fresh medium was added, containing the tested compounds (0.5–100 μg/mL) and incubated for 24 or 48 h. Cell viability was determined by MTT assay, according to the manufacturer’s instructions, as described previously. Each experiment was performed in triplicate. The absorbance was measured at 570 nm using a Biotek Synergy microplate reader (BioTek Instruments Inc., Winooski, VT, USA). Cell viability was expressed as a percent of control (untreated cells). Doxorubicin was used as a reference drug.
(§3) The selectivity index (SI) was calculated from the following formula:SI = IC50 of compound in a normal cell line/IC50 of compound in cancer cell line.IC50, half maximal inhibitory concentration, is a concentration required to kill 50% of the cells.

FTC133 = assay: MTT cell viability assay, FTC133 follicular thyroid carcinoma cells; assay type: cell-based, human; conditions: for IC50: Homo sapiens, FTC-133
Description: as §1, §2, §3

CCD 841 CoN = assay: MTT cell viability assay, CCD 841 CoN normal colon epithelial cells; assay type: cell-based; conditions: Homo sapiens
Description: as §1, §2

Nthy-ori 3-1 = assay: MTT cell viability assay, Nthy-ori 3-1 normal thyroid epithelial cells; assay type: cell-based; conditions: Homo sapiens
Description: as §1, §2

WM793 = assay: MTT cell viability assay, WM793 primary melanoma cells; assay type: cell-based, human; conditions: for IC50: Homo sapiens
Description: as §1, §2, §3

HCT116 = assay: MTT cell viability assay, HCT116 colon cancer cells; assay type: cell-based; conditions: Homo sapiens, HCT-116
Description: as §1, §2

PC3 = assay: MTT cell viability assay, PC3 prostate carcinoma cells; assay type: cell-based; conditions: Homo sapiens, PC-3
Description: as §1, §2

PNT2 = assay: MTT cell viability assay, PNT2 normal prostate epithelial cells; assay type: cell-based; conditions: Homo sapiens
Description: as §1, §2

TPC-1 = assay: MTT cell viability assay, TPC-1 papillary thyroid carcinoma cells; assay type: cell-based, human; conditions: for IC50: Homo sapiens, TPC1
Description: as §1, §2, §3

Caco-2 = assay: MTT cell viability assay, Caco-2 colon cancer cells; assay type: cell-based; conditions: Homo sapiens
Description: as §1, §2

HTB-140 = assay: MTT cell viability assay, HTB-140 metastatic melanoma cells; assay type: cell-based, human; conditions: for IC50: Homo sapiens; for Selectivity Index (SI): IC50 HaCaT / IC50 HTB-140, 24 h
Description: as §1, §2, §3

8505C = assay: MTT cell viability assay, 8505C undifferentiated thyroid carcinoma cells; assay type: cell-based, human; conditions: for IC50: Homo sapiens, 8505C; for Selectivity Index (SI): IC50 Nthy-ori 3-1 / IC50 8505C
Description: as §1, §2, §3

LNCaP = assay: MTT cell viability assay, LNCaP prostate adenocarcinoma cells; assay type: cell-based; conditions: Homo sapiens
Description: as §1, §2

HaCaT = assay: MTT cell viability assay, HaCaT keratinocytes; assay type: cell-based; conditions: Homo sapiens
Description: as §1, §2

DLD-1 = assay: MTT cell viability assay, DLD-1 colon cancer cells; assay type: cell-based; conditions: Homo sapiens
Description: as §1, §2

HT29 = assay: MTT cell viability assay, HT29 colorectal adenocarcinoma cells; assay type: cell-based; conditions: Homo sapiens, HT-29
Description: as §1, §2

Du-145 = assay: MTT cell viability assay, Du-145 prostate carcinoma cells; assay type: cell-based; conditions: Homo sapiens
Description: as §1, §2

HepG2 = assay: MTT cell viability assay, HepG2 hepatocellular carcinoma cells; assay type: cell-based; conditions: Homo sapiens
Description: as §1, §2

MCF7 = assay: MTT cell viability assay, MCF7 breast adenocarcinoma cells; assay type: cell-based; conditions: Homo sapiens
Description: as §1, §2

MCF10A = assay: MTT cell viability assay, MCF10A normal breast epithelial cells; assay type: cell-based; conditions: Homo sapiens, MCF-10A
Description: as §1, §2

MDA-MB-231 = assay: MTT cell viability assay, MDA-MB-231 breast adenocarcinoma cells; assay type: cell-based; conditions: Homo sapiens
Description: as §1, §2

[1] = IC50 Nthy-ori 3-1 / IC50 FTC133, 24 h
[2] = IC50 Nthy-ori 3-1 / IC50 TPC-1, 24 h

COc1cccc2c1C(=O)c1c(O)c3c(c(O)c1C2=O)C[C@@](O)(C(=O)CO)C[C@@H]3O[C@H]1C[C@H](N)[C@H](O)[C@H](C)O1 [DOX, Doxorubicin]
IC50 (A375; A375, 24 h): 0.6 µg/mL | Selectivity Index (SI) (A375): 7.9 | IC50 (FTC133; FTC133, 24 h): 4 µg/mL | Selectivity Index (SI) (FTC133; [1]): 6.76 | IC50 (CCD 841 CoN; 24 h): 1.7 µg/mL | IC50 (Nthy-ori 3-1; 24 h): 27.2 µg/mL | IC50 (WM793; WM793, 24 h): > 40 µg/mL | IC50 (HCT116; HCT116, 24 h): 4 µg/mL | IC50 (PC3; PC3, 24 h): > 50 µg/mL | IC50 (PNT2; 24 h): 1.4 µg/mL | IC50 (TPC-1; TPC-1, 24 h): 3.9 µg/mL | Selectivity Index (SI) (TPC-1; [2]): 7.0 | IC50 (Caco-2; Caco-2, 24 h): 3.4 µg/mL | IC50 (HTB-140; HTB-140, 24 h): 5.7 µg/mL | Selectivity Index (SI) (HTB-140): 0.8 | IC50 (8505C; 24 h): > 40 µg/mL | IC50 (LNCaP; 24 h): 1.8 µg/mL | IC50 (HaCaT; 24 h): 4.7 µg/mL | IC50 (DLD-1; DLD-1, 24 h): 1.1 µg/mL | IC50 (HT29; HT29, 24 h): 1.5 µg/mL | IC50 (Du-145; DU-145, 24 h): 3.2 µg/mL | IC50 (HepG2; HepG2, 24 h): 1 µg/mL

CC1(C)CCC2(C(=O)O)CCC3(C)C(=CCC4C5(C)CCC(OC6OC(C(=O)O)C(O)C(OC7OCC(O)C(O)C7O)C6O)C(C)(C)C5CCC43C)C2C1 [MIc, oleanolic acid-3-O-[β-D-xylopyranosyl(1→3)-β-D-glucuronopyranoside]]
IC50 (A375; A375, 24 h): 1.9 µg/mL | IC50 (A375; A375, 48 h): 0.9 µg/mL | Selectivity Index (SI) (A375): 2.7 | IC50 (MCF7; MCF7, 24 h): > 100 µg/mL | IC50 (MCF7; MCF7, 48 h): 29.2 µg/mL | IC50 (FTC133; FTC133, 24 h): 3.5 µg/mL | IC50 (FTC133; FTC133, 48 h): 2.1 µg/mL | Selectivity Index (SI) (FTC133; [1]): 24.85 | Selectivity Index (SI) (FTC133; IC50 Nthy-ori 3-1 / IC50 FTC133, 48 h): 30.7 | IC50 (CCD 841 CoN; 24 h): > 100 µg/mL | IC50 (CCD 841 CoN; 48 h): > 100 µg/mL | IC50 (Nthy-ori 3-1; 24 h): 86.2 µg/mL | IC50 (Nthy-ori 3-1; 48 h): 64.4 µg/mL | IC50 (MCF10A; 24 h): > 100 µg/mL | IC50 (MCF10A; 48 h): > 100 µg/mL | IC50 (WM793; WM793, 24 h): 2 µg/mL | IC50 (WM793; WM793, 48 h): 1 µg/mL | Selectivity Index (SI) (WM793; IC50 HaCaT / IC50 WM793, 24 h): 2.6 | Selectivity Index (SI) (WM793; IC50 HaCaT / IC50 WM793, 48 h): 2.7 | IC50 (HCT116; HCT116, 24 h): 9.4 µg/mL | IC50 (HCT116; HCT116, 48 h): 8.3 µg/mL | IC50 (PC3; PC3, 24 h): 5.5 µg/mL | IC50 (PC3; PC3, 48 h): 3.4 µg/mL | IC50 (PNT2; 24 h): > 100 µg/mL | IC50 (PNT2; 48 h): > 100 µg/mL | IC50 (TPC-1; TPC-1, 24 h): 39 µg/mL | IC50 (TPC-1; TPC-1, 48 h): 39 µg/mL | Selectivity Index (SI) (TPC-1; [2]): 2.2 | Selectivity Index (SI) (TPC-1; IC50 Nthy-ori 3-1 / IC50 TPC-1, 48 h): 1.6 | IC50 (Caco-2; Caco-2, 24 h): 7 µg/mL | IC50 (Caco-2; Caco-2, 48 h): 4.3 µg/mL | IC50 (HTB-140; HTB-140, 24 h): 7.8 µg/mL | IC50 (HTB-140; HTB-140, 48 h): 3 µg/mL | Selectivity Index (SI) (HTB-140): 0.7 | IC50 (8505C; 24 h): 10.6 µg/mL | IC50 (8505C; 48 h): 5.2 µg/mL | Selectivity Index (SI) (8505C; 24 h): 8.2 | Selectivity Index (SI) (8505C; 48 h): 12.2 | IC50 (LNCaP; 24 h): > 100 µg/mL | IC50 (LNCaP; 48 h): > 100 µg/mL | IC50 (HaCaT; 24 h): 5.3 µg/mL | IC50 (HaCaT; 48 h): 2.7 µg/mL | IC50 (DLD-1; DLD-1, 24 h): 16 µg/mL | IC50 (DLD-1; DLD-1, 48 h): 8 µg/mL | IC50 (HT29; HT29, 24 h): 4.2 µg/mL | IC50 (HT29; HT29, 48 h): 2.9 µg/mL | IC50 (MDA-MB-231; MDA-MB-231, 24 h): 52.2 µg/mL | IC50 (MDA-MB-231; MDA-MB-231, 48 h): 16.4 µg/mL | IC50 (Du-145; DU-145, 24 h): 5.4 µg/mL | IC50 (Du-145; DU-145, 48 h): 2.8 µg/mL | IC50 (HepG2; HepG2, 24 h): 12.5 µg/mL | IC50 (HepG2; HepG2, 48 h): 9.5 µg/mL
